Measurements: ChEMBL document CHEMBL1140991, “Synthesis and testing of peptides for anti-prion activity” (Eur J Med Chem, 2008)

Experiments:
[1] = test system: brain; assay: Antiprion activity against Scrapie prion protein-infected mouse brain cells assessed as remaining PrP-res level at 100 uM after 4 days by Western blotting relative to control; format: tissue-based
[2] = target: Major prion protein (Mus musculus) (UniProt P04925); assay: Inhibition of manganese-induced aggregation in mouse recombinant PrP assessed as PrP-res formation at 100 uM after 30 mins relative to control; design: scale not given: the % may be the effect or the level left
Sequence of Major prion protein (Mus musculus) (P04925 whole entry): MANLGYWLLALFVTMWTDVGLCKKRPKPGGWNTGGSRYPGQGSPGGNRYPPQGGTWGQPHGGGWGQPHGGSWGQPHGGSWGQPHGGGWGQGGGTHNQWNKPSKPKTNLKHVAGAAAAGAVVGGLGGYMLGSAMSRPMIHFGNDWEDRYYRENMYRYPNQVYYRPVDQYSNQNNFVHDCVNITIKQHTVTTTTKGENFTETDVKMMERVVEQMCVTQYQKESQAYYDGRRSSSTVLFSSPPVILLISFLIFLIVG

[3] = target: Major prion protein (Mus musculus) (UniProt P04925); assay: Inhibition of mouse recombinant PrP interaction with scrapie mouse brain PrP-res assessed as PrP-res formation at 100 uM after 30 mins by aggregation assay relative to control
[4] = test system: brain; assay: Antiprion activity against Scrapie prion protein-infected mouse brain cells assessed as remaining PrP-res level at 10 uM after 4 days by Western blotting relative to control; format: tissue-based

| Substance | Activity [1] | Activity [2] | PrP-res formation relative to control [3] | Remaining PrP-res level [4] |
| --- | --- | --- | --- | --- |
| H-GAAPPG-NH2 | 5% | 240% |  |  |
| H-GAPAPG-NH2 | 52% | 85% |  |  |
| H-GPAAPG-NH2 | 261% | 48% |  |  |
| H-HAAGAAAAGA-NH2 | 39% | 59% |  |  |
| H-HAAGAAAAGAV-NH2 | 74% | 34% |  |  |
| H-HAAGAAAPGA-NH2 | 183% | 28% |  |  |
| H-HAAGAAAPGAV-NH2 | 32% | 64% |  |  |
| H-HAAPAAAAGA-NH2 | 151% | 93% |  |  |
| H-HAAPAAAAGAV-NH2 | 225% | 38% |  |  |
| H-HPAGAAAAGA-NH2 | 23% | 11% | 11% |  |
| H-HPAGAAAAGAV-NH2 | 135% | 74% |  |  |
| H-KHAAGAAAAGA-NH2 | 59% | 102% |  |  |
| H-KHAAGAAAAGAVV-NH2 | 93% | 112% |  |  |
| H-KHAAGAAAPGA-NH2 | 44% | 52% |  |  |
| H-KHAAGAAAPGAVV-NH2 | 7% | 86% |  | 108% |
| H-KHAAPAAAAGA-NH2 | 70% | 73% |  |  |
| H-KHAAPAAAAGAVV-NH2 | 68% | 44% | 44% |  |
| H-KHPAGAAAAGA-NH2 | 83% | 19% |  |  |
| H-KHPAGAAAAGAVV-NH2 | 68% | 73% |  |  |
| H-MAGAAAAGA-NH2 | 89% | 104% |  |  |
| H-MLGSAPSR-NH2 | 61% | 1% |  |  |
| H-PAGAAAA-NH2 | 71% |  |  |  |
| H-PAGAAAAG-NH2 | 10% | 130% |  | 158% |
| H-PAGAAAAGA-NH2 | 100% | 71% |  |  |
| H-PAGAAAAGAV-NH2 | 112% | 77% |  |  |
| H-PAGAAAAGAVV-NH2 | 132% | 28% | 28% |  |
| H-PAGAAAPGA-NH2 | 79% | 56% |  |  |
| H-PLGSAMSR-NH2 | 45% | 11% |  |  |
| H-VAGAAAAGA-NH2 | 93% | 84% |  |  |
